Measured values taken from patent US12636371B2, “Chemically coupled transporter for low-hydrophobicity bioactive drugs into the central nervous system” (Skybio LLC, priority 2021, dated 2026).

Assays:
SH-SY5Y cells = experiment: Lysosome localization and number, LysoTracker Deep Red confocal microscopy; assay type: cell-based; conditions: 200 μM, 24 hs
Excerpt: Lysosomes are the final destination of the autophagic pathway. LysoTracker™ fluorescent probes, dyes that preferentially accumulate in vesicles with acidic pH, are widely used for tracing lysosomes in living and fixed cells in order to study organelle localization, their resident proteins, assess organelle functionality, quantify lysosome numbers and abnormalities in vesicular pH (Eskelinen E L, Schmidt C K, Neu S, et al. Disturbed cholesterol traffic but normal proteolytic function in LAMP-1/LAMP-2 double-deficient fibroblasts. Mol Biol Cell 2004; 15(7): 3132-45), and to examine the efficiency of autophagosome/lysosome fusion in live cells (González-Polo R A, Boya P, Pauleau A L, et al. The apoptosis/autophagy paradox: autophagic vacuolization before apoptotic death. J Cell Sci 2005; 118 (Pt 14): 3091-102.).
The effect of Pegasus on lysosomal activity in SH-SY5Y cells was estimated by visualizing the localization and number of lysosomes, marked by LysoTracker™ Deep Red (ThermoFisher #L12492), after treatment with 200 μM of Pegasus for 24 hs. After incubation, cells were fixed in PFA 4% prepared for confocal microscopy. Images were acquired in a ZEISS LSM800 confocal microscope.

D1 dopamine receptor = D1 dopamine receptor (Homo sapiens, UniProt P21728); experiment: D1 receptor agonist assay, cAMP Nomad biosensor, HEK_cAMPNmd_FP650_D1 cells
Sequence of D1 dopamine receptor (P21728 whole entry): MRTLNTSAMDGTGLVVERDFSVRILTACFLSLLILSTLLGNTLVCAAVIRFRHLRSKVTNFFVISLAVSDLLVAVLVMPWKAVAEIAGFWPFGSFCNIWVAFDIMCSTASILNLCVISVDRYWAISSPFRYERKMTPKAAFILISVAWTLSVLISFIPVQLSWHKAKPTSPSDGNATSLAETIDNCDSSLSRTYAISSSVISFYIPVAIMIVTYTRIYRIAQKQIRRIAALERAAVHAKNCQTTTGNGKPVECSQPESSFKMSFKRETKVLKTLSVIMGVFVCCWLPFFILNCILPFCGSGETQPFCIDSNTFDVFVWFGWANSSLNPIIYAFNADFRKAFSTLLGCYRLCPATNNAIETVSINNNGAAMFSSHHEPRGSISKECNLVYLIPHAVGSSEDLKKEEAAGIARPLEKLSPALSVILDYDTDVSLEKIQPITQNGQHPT
Protocol: HEK_cAMPNmd_FP650_D1 and U2OS_cAMPNmd_FP650_D2 cells were seeded at a density of 30.000 and 20.000 cells/well, respectively, in 96-well plates. Cells were maintained in DMEM or DMEM-F12 medium supplemented with 10% FBS during 24 h at 37° C. in a humidified 5% CO2 atmosphere.
To detect Nomad biosensor activation, the assay medium was removed and replaced by 100 ml of DPBS with calcium and magnesium. […] In U2OS_cAMPNmd_FP650_D2 cells, images were acquired using the CellInsight CX7 HCS Platform, and the number of fluorescent vesicles per cell was quantified with the HCS Studio Cell Analysis Software.
The effect of the compounds in the regulation of D1 or D2 receptors' activation was analyzed measuring the CAMP signaling using the Nomad biosensor-based assay.

[1] = biological target: T1, recombinant human AS (α-synuclein) (Homo sapiens, UniProt P37840); experiment: Thioflavin T fluorescence assay of AS amyloid aggregation; assay type: biochemical; conditions: 70 μM AS, 10 or 50 μM compound, 37° C., 600 rpm, 20 mM HEPES pH 7.4
T1 construct: made in house
Protocol: In order to evaluate the effect of Pegasus (D9) on AS amyloid fibril formation, aggregation reactions were performed according to LeVine (LeVine H, 3rd. Thioflavine T interaction with synthetic Alzheimer's disease beta-amyloid peptides: detection of amyloid aggregation in solution. Protein Sci 1993; 2(3): 404-10; LeVine H, 3rd. Quantification of beta-sheet amyloid fibril structures with thioflavin T. Methods Enzymol 1999; 309: 274-84.). In brief, the formation of cross-ß structures were followed by adding Thioflavin T (ThT), a fluorescent cross-β reporter probe, to aliquots extracted from the incubation mixture at different times.
Expression and purification of recombinant human AS were performed as previously described (Hoyer W, Antony T, Cherny D, Heim G, Jovin T M, Subramaniam V. Dependence of AS aggregate morphology on solution conditions. J Mol Biol 2002; 322(2): 383-93), and purity was assessed by SDS-PAGE. […] The protein concentration was determined by absorbance at 275 nm using the extinction coefficient ε275=5600 cm^−1 M^−1. […]
For aggregation reactions, aliquots of monomeric AS (70 μM) in 20 mM HEPES, pH 7.4 were incubated in a Thermomixer comfort (Eppendorf) at 37° C. and 600 rpm in the absence or presence of 10 or 50 μM D9. Aggregation was monitored with a Horiba FluoroMax-4 spectrofluorometer using the ThT fluorescence assay.

Bv2 cells = experiment: MTT cytotoxicity assay in microglial Bv2 cell line; assay type: cell-based, murine; conditions: 10 and 20 μM, 24 h
Protocol: The ability of D9 to induce cytotoxicity was also studied using the MTT assay on Bv2 cells, a microglial cell line derived from the C57/BL6 murine model. For this, Bv2 cells were incubated in the presence and in the absence of different Pegasus concentrations at 37° C. Bv2 cells retain the morphology and functional characteristics of microglia and are therefore a widespread microglial model. These cells are immortalized by v-raf/v-myc carrying J2 retrovirus, and express nuclear v-myc and the cytoplasmic v-raf oncogene products as well as the env gp70 antigen at the surface level.
Bv2 cells were seeded in Poly-L-Lysine-treated 96-well plates at 15,000 cells/well and in 100 μl of DMEM supplemented with 10% Fetal Bovine Serum (FBS) and 1% Antibiotics/Antimycotics (PSA) and incubated for 24 h at 37° C. and 5% CO2. Afterwards, cells were treated with a 25 μl aliquot of a 50 µM and 100 μM Pegasus solution (final concentration in well 10 μM and 20 μM) and incubated for 24 h. To determine cell viability, the colorimetric MTT metabolic activity assay was used as previously described by Mosmann. All experiments were performed in sextuplicate, and the relative cell viability (%) was expressed as a percentage relative to the untreated control condition.

[2] = system: IL-1β release in Bv2 cells; experiment: IL-1β release in LPS-stimulated microglial cells (ELISA); assay type: cell-based, murine
Protocol: To evaluate the effect of Pegasus on LPS-activated microglia, Bv2 cells were pretreated with Pegasus (D9) (200 μM). After 4 h of treatment, cells were stimulated with LPS (10 μg/mL, final concentration) during 24 h. Doxycycline (Doxy) (200 μM) and Dexamethasone (Dexa) (200 μM) were used as a positive control of anti-inflammatory effects. IL-1β cytokine concentration was measured by ELISA assays (Mouse IL-1 beta ELISA Kit, Cat #BMS6002, Invitrogen), according to instructions provided by the manufacturer.

With `C[C@H]1c2ccc(NC(=O)CCC(=O)NCCc3ccc(O)c(O)c3)c(O)c2C(=O)C2=C(O)[C@]3(O)C(=O)C(C(N)=O)=C(O)CC3[C@@H](O)C21` (stereo partly drawn) [Pegasus] the “Localization and number of lysosomes (lysosome biogenesis)” value (SH-SY5Y cells) was “does not interfere with the biogenesis of lysosomes”, the EC50 (D1 dopamine receptor) was 2800 nM and the “Inhibition of AS aggregation (ThT fluorescence)” value [1] was “able to inhibit AS aggregation”. For the same compound, the “Cytotoxicity (relative cell viability, MTT)” value (Bv2 cells) was “did not induce cell toxicity”, the “IL-1β production after LPS stimulation” value ([2]; 200 μM pretreatment 4 h, then LPS 10 μg/mL 24 h) was “reduced production of IL-1β” and the “IL-1β release, compound alone” value ([2]; compound alone, no LPS) was “did not lead to a significantly increase of IL-1β release”.
